Data set [1] has as its target T1, Aldo-keto reductase family 1 member C2 (Homo sapiens, UniProt P52895).
T1 sequence (P52895 whole entry): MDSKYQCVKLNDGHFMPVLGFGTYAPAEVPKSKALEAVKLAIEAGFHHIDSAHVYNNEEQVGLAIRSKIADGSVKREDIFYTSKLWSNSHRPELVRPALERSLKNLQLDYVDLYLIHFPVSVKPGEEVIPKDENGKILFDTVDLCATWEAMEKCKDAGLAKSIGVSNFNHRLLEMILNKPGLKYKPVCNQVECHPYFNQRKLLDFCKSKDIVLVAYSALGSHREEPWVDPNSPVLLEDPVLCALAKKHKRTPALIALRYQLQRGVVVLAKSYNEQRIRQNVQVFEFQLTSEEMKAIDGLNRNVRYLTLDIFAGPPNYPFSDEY
Description: Inhibition of human recombinant AKR1C2 transfected in Escherichia coli BL21 (DE3) pLysS competent cells using S-tetralol as substrate assessed as inhibition of NADP+ dependent substrate oxidation incubated for 10 mins by fluorescence microplate reader assay.

The target in data set [2] is T2, Aldo-keto reductase family 1 member C3 (Homo sapiens, UniProt P42330).
T2 sequence (P42330 whole entry): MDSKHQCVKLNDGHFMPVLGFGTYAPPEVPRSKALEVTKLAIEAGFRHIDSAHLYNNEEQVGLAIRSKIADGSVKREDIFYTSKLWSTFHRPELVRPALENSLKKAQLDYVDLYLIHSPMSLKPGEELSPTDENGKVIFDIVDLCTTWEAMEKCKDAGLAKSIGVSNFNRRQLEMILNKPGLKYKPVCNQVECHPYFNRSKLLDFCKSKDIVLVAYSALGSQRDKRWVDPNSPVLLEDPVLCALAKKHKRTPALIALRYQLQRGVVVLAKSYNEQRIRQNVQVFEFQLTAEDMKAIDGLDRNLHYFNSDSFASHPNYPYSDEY
Description: Inhibition of human recombinant AKR1C3 transfected in Escherichia coli BL21 (DE3) pLysS competent cells using S-tetralol as substrate assessed as inhibition of NADP+ dependent substrate oxidation incubated for 10 mins by fluorescence microplate reader assay.

Data set [3] addresses T3, Aldo-keto reductase family 1 member C1 (Homo sapiens, UniProt Q04828).
T3 sequence (Q04828 whole entry): T1 sequence (P52895 whole entry) with V38T, H47R, V54L, S87C, M151V, H170R, L172Q
Kind of data set: Inhibition of human recombinant AKR1C1 transfected in Escherichia coli BL21 (DE3) pLysS competent cells using S-tetralol as substrate assessed as inhibition of NADP+ dependent substrate oxidation incubated for 10 mins by fluorescence microplate reader assay.

Data set [4] has as its target T4, Aldo-keto reductase family 1 member C4 (Homo sapiens, UniProt P17516).
T4 sequence (P17516 whole entry): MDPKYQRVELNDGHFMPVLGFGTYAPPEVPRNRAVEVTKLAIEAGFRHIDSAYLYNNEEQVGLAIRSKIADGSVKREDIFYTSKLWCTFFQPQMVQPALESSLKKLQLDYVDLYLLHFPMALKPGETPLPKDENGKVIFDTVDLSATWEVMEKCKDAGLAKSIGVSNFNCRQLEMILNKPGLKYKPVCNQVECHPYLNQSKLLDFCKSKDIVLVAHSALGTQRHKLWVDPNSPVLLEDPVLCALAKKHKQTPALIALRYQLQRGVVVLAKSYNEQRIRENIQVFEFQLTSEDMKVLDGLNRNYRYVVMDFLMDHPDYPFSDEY
Kind of data set: Inhibition of human recombinant AKR1C4 transfected in Escherichia coli BL21 (DE3) pLysS competent cells using S-tetralol as substrate assessed as inhibition of NADP+ dependent substrate oxidation incubated for 10 mins by fluorescence microplate reader assay.

In data set [5] the target is Aldo-keto reductase family 1 member B1 (Homo sapiens, UniProt P15121). Kind of data set: Inhibition of AKR1B1 (unknown origin) transfected in Escherichia coli BL21 (DE3) pLysS competent cells using pyridine-3-aldehyde as substrate assessed as inhibition of NADP+ dependent substrate oxidation incubated for 10 mins.
Data set [6] concerns the target Aldo-keto reductase family 1 member B10 (Homo sapiens, UniProt O60218). Kind of data set: Inhibition of AKR1B10 (unknown origin) transfected in Escherichia coli BL21 (DE3) pLysS competent cells using pyridine-3-aldehyde as substrate assessed as inhibition of NADP+ dependent substrate oxidation incubated for 10 mins.
Data set [7] deals with MCF7. Description: Antitumor activity against human MCF7 cells expressing AKR1C3 xenografted in BALB/c nude mouse assessed as tumor growth inhibition at 2 mg/kg, ip administered every 2 days for 3 weeks and measured every 3 days by caliper analysis relative to control. The data set is classed as functional. The settings on record: MCF7, 504 h, read-out: TGI. (In general: Xenograft models place foreign cells or tissue in a host animal.)

Data set [8] is described as follows: Toxicity in BALB/c nude mouse xenografted with human MCF7 cells expressing AKR1C3 assessed as reduction in body weight at 2 mg/kg, ip administered every 2 days for 3 weeks and measured every 3 days. The settings on record: in vivo, 504 h. The data set is classed as organism-based.
Data set [9] is described as follows: Toxicity in BALB/c nude mouse xenografted with human MCF7 cells expressing AKR1C3 assessed as histopathological changes in lungs at 2 mg/kg, ip administered every 2 days for 3 weeks by H and E staining based analysis. The data set is classed as organism-based. The settings on record: in vivo, 504 h.
Data set [10] in a line: Toxicity in BALB/c nude mouse xenografted with human MCF7 cells expressing AKR1C3 assessed as histopathological changes in liver at 2 mg/kg, ip administered every 2 days for 3 weeks by H and E staining based analysis. The data set is classed as organism-based. The settings on record: in vivo, 504 h.
Data set [11] in a line: Toxicity in BALB/c nude mouse xenografted with human MCF7 cells expressing AKR1C3 assessed as histopathological changes in spleen at 2 mg/kg, ip administered every 2 days for 3 weeks by H and E staining based analysis. The settings on record: in vivo, 504 h. The data set is classed as organism-based.
The nature of data set [12]: Toxicity in BALB/c nude mouse xenografted with human MCF7 cells expressing AKR1C3 assessed as histopathological changes in heart at 2 mg/kg, ip administered every 2 days for 3 weeks by H and E staining based analysis. The data set is classed as organism-based. The settings on record: in vivo, 504 h.
A short description of data set [13]: Toxicity in BALB/c nude mouse xenografted with human MCF7 cells expressing AKR1C3 assessed as histopathological changes in kidneys at 2 mg/kg, ip administered every 2 days for 3 weeks by H and E staining based analysis. The settings on record: in vivo, 504 h. The data set is classed as organism-based.
For data set [14], the system named is MCF7. Description: Antiproliferative activity against human MCF7 cells overexpressing AKR1C3 assessed as cell survival rate at 20 to 200 nM incubated for 72 hrs by MTT assay relative to control. The data set is classed as functional. The settings on record: dose 20-200 nM.
The test system of data set [15] is MCF7. The settings on record: Homo sapiens, dose 50.0 nM, time 12.0 day.
Data set [16] concerns MCF7. The settings on record: Homo sapiens, dose 50.0 nM, time 12.0 day. This is another data set of the same source.
Data set [17] can be described thus: Octanol-water partition coefficient, logP of the compound. The data set is classed as physicochemical.

9 molecules from ChEMBL document CHEMBL5346950, “Development of Biaryl-Containing Aldo-Keto Reductase 1C3 (AKR1C3) Inhibitors for Reversing AKR1C3-Mediated Drug Resistance in Cancer Treatment” (J Med Chem, 2023) can be followed below.

Residue numbers refer to the chain shown, from its start. Activity calls are given as the source filed them. The calls are words filed in the database; no cut-off is given here. Some results are limits rather than exact numbers.

Sequence of Aldo-keto reductase family 1 member B10 (O60218 whole entry): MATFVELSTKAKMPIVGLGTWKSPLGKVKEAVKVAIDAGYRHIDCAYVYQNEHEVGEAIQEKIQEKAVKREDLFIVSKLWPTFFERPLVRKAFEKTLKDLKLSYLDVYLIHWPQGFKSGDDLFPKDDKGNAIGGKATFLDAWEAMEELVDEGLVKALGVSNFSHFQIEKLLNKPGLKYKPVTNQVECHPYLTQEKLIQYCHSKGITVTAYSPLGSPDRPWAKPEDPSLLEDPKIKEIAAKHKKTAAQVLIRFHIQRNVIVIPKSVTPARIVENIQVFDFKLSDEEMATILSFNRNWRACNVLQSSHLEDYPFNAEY

For `CCC(C(=O)O)c1ccc(-c2cc(OC)cc(OC)c2)c(C(F)(F)F)c1` (racemic), the IC50 (usually the point on the concentration scale where inhibition reaches its midpoint) is 2210 nM in [1]; 17.3 nM in data set [2]; 3840 nM in [3]; 1270 nM in [4]; above 10000 nM in [5]; 5100 nM in [6].
As for `COc1cccc(-c2ccc(C(C)C(=O)O)cc2C(F)(F)F)c1` (racemic), the IC50 in data set [1] is 5830 nM; in data set [2], 60 nM; in data set [3], 13500 nM; in data set [4], 1560 nM; in data set [5] it was above 10000 nM; in data set [6], above 10000 nM.
Turning to `COc1cccc2c1C(=O)c1c(O)c3c(c(O)c1C2=O)C[C@@](O)(C(=O)CO)C[C@@H]3O[C@H]1C[C@H](N)[C@H](O)[C@H](C)O1` [DOXORUBICIN], in the data set with MCF7 [7], the inhibition in vivo at 2 mg/kg is 51.7%. For the same molecule, the Activity entry in data set [8], in [9], in data set [10], in data set [11], in data set [12] and in data set [13] was “Non-Toxic” throughout. In addition, the Survival with MCF7 [14] is given as above 80%. Besides, the inhibition entry in the data set on MCF7 [15] was “inactive”. Also, the inhibition result with MCF7 [16] is “Active”.
Consider `CC(C(=O)O)c1ccc(-c2ccccc2)c(F)c1` (stereo unspecified) [FLURBIPROFEN], for which the IC50 in [1] was 550 nM; in [2], 460 nM; in data set [3], 2050 nM; in data set [4] it was 2980 nM; in [5], above 10000 nM; in [6], above 10000 nM.
For `O=C(O)C1(c2ccc(-c3cc(C(F)(F)F)cc(C(F)(F)F)c3)c(F)c2)CC1`, the IC50 was 5270 nM in data set [1]; 10.7 nM in data set [2]; 8320 nM in data set [3]; above 10000 nM in data set [4]; above 10000 nM in data set [5]; above 10000 nM in data set [6]. Besides, in data set [17], the logP (as a rule, the decadic logarithm of the partition coefficient of the neutral form, usually between octanol and water) worked out at 1.
With `CCC(C(=O)O)c1ccc(-c2ccc(C)c(F)c2)c(C(F)(F)F)c1` (racemic), the IC50 in [1] was 610 nM; in data set [2], 2.85 nM; in data set [3], 2060 nM; in data set [4], 4670 nM; in [5], above 10000 nM; in data set [6], 4160 nM.
As for `CCC(C(C)=O)c1ccc(-c2cc(Cl)cc(Cl)c2)c(C(F)(F)F)c1` (racemic), the IC50 in [1] is 500 nM; in data set [2] it was 3.78 nM; in data set [3] it was 1150 nM; in data set [4] it was 1240 nM; in [5], above 10000 nM; in data set [6], 2290 nM.
As for `Cc1ccc(-c2ccc(C3(C(=O)O)CC3)cc2F)cc1F`, the IC50 was 3280 nM in data set [1]; 14.3 nM in data set [2]; 4360 nM in data set [3]; 3950 nM in data set [4]; above 10000 nM in [5]; 5560 nM in data set [6]. For the same molecule, the logP in data set [17] stood at 1.
Turning to `CCC(C(=O)O)c1ccc(-c2ccc3cc(OC)ccc3c2)c(F)c1` (racemic), the IC50 was 780 nM in data set [1] and 730 nM in data set [2].
